Laboratory results taken from paper PMC8225008, “Development of Non-Ethoxypropanoic Acid Type Cryptochrome Inhibitors with Circadian Molecular Clock-Enhancing Activity by Bioisosteric Replacement” (Pharmaceuticals, 2021).

Columns and labels:
E-box-LUC reporter = test: E-box-LUC luciferase reporter assay, dose-response in stably transfected NIH3T3 cells; type: cell-based; conditions: Mus musculus, E-box-LUC reporter activity, NIH3T3, 36 h; for Emax: maximum response as a percentage of the vehicle-treated group, read-out: Max (%)
Method: (§1) Materials for cell culture were purchased from Thermo Fisher Scientific, unless otherwise stated. NIH3T3 and HEK293T cells were maintained in Dulbecco’s modified Eagle medium supplemented with 5% fetal bovine serum and 100 U/mL penicillin/streptomycin in a humidified atmosphere containing 5% CO2 at 37 °C. Plasmids and transfection experiments for luciferase reporter assay were described in our previous report. For dose-response experiments, mouse NIH3T3 cells stably transfected with an E-box-LUC reporter were plated in 12-well culture plates, treated as indicated for 36 h, and subjected to luciferase assay. For transient transfections, we seeded HEK293T cells in 12-well culture plates and used Lipofectamine® 3000 reagent to transfect cells with the E-box-LUC reporter and the indicated clock gene expression plasmids together with a thymidine kinase promoter-driven Renilla luciferase (pRL-TK) plasmids. We kept total DNA levels constant by adding an empty pcDNA3.1 plasmid. After 24 h of transfection, cells were treated with vehicle (0.1% DMSO) or chemical compounds at various concentrations for 36 h. Cell extracts were prepared by incubating cells in 0.3 mL reporter lysis buffer for 15 min at room temperature. Luciferase activity was measured with a commercial dual luciferase assay kit (Promega, Madison, WI, USA).
(§2) The EC50 values for luciferase reporter assay were calculated based on a logistic four-parametric equation using the mean values of intrinsic activation (SigmaPlot 10.0; Systat Software Inc., San Jose, CA, USA). The IC50 and t1/2 values for the cytochrome P450 inhibition assay and metabolic stability test were calculated by WinNonlin software (Pharsight, Mountain View, CA, USA). Pharmacokinetic parameters were calculated using non-compartmental analysis (WinNonlin v.8.3; Pharsight, Mountain View, CA, USA). Kinetic and equilibrium constants for SPR analysis were obtained by global fitting of the Langmuir 1:1 bimolecular kinetic model (ProteOn Manager v.3.1.0.6, Bio-Rad, Hercules, CA, USA). Circadian molecular clock-enhancing activities were expressed as means ± SE and statistically evaluated by Student’s t-test or one-way analysis of variance (ANOVA) followed by Newman–Keuls multiple comparison test for post hoc comparisons. The significance level for the analyses was set at p < 0.05.

[1] = Metabolic stability test in pooled human liver microsomes; type: in vitro ADME; conditions: pooled HLMs 1.0 mg/mL, 1 μM compound, NADPH generating system, read-out: t1/2 in HLMs
Method: The metabolic stability of KS15, 5d, or 2d was evaluated using pooled HLMs. Pooled HLMs (1.0 mg/mL), a potassium phosphate buffer, and a test compound (1 μM) were pre-incubated (37 °C, 5 min). To initiate the reaction, the NADPH generating system was added to the samples and incubated for specific time points (0, 5, 15, 20, 45, and 60 min). Then, aliquots were taken and reactions terminated in acetonitrile containing IS. After centrifugation, supernatants were analyzed using LC-MS/MS to determine KS15, 5d, or 2d concentrations in samples. Analyte separation was performed using a Kinetex C18 column (100 mm × 2.1 mm, 2.6 μm ID., Phenomenex). The mobile phase solvent A was 0.1% formic acid in water, and solvent B was 0.1% formic acid in acetonitrile. Gradient separation was performed as follows: 0–3 min (10–90% B) and 3.1–8 min (10% B). The flow rate was 0.2 mL/min, and the run time was 8 min for each sample. Electrospray ionization was conducted in positive ion mode at 4 kV. […] Quantitation was performed in the SRM of the [M+H]^+ ion and the related product ion for each test compound and IS: KS-15 (m/z 420 > 169, CE 30 eV), 5d (m/z 359 > 206, CE 20 eV), 2d (m/z 345 > 192, CE 22 eV), and IS (m/z 295 > 100, CE 17 eV).
as §2, with “Kinetic and equilibrium constants for SPR analysis were obtained by global fitting of the Langmuir 1:1 bimolecular kinetic model (ProteOn Manager v.3.1.0.6, Bio-Rad, Hercules, CA, USA).” left out, “The significance level for the analyses was set at p < 0.05.” left out

hCRY1 = molecular target: T1, hCRY1 (Homo sapiens, UniProt Q16526); test: Suppressive action of CRY1 on CLOCK:BMAL1-activated E-box-LUC reporter activity in transiently transfected HEK293T cells; type: cell-based; parameters: expressed in transfected cells; host or cells: HEK293T; conditions: co-expression of human CRY1, 36 h treatment
T1 sequence (Q16526 1-586): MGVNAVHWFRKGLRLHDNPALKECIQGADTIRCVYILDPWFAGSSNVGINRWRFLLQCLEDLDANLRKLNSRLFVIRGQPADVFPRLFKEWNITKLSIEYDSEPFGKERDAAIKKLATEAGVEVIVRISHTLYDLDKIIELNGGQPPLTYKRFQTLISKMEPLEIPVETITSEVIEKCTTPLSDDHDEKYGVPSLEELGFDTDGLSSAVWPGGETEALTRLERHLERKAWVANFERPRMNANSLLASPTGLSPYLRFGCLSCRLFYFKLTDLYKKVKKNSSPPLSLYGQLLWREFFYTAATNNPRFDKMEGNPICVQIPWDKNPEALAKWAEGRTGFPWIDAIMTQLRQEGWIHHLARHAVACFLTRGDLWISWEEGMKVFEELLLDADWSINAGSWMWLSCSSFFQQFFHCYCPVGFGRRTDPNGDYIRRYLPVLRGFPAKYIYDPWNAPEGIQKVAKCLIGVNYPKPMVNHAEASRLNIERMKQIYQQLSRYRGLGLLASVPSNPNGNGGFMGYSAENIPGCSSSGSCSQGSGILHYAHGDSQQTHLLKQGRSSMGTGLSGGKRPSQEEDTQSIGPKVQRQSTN
Method: as §1

[2] = tested on: Per2-luciferase knock-in (Per2-Luc-KI) fibroblast cultures; test: Real-time bioluminescence monitoring of DEX-synchronized Per2-Luc-KI fibroblast cultures; type: cell-based, mouse; conditions: 20 μM, DEX-synchronized Per2-Luc-KI fibroblasts
Method: For real-time bioluminescence monitoring, we used mouse embryonic fibroblast (MEF) cultures established from Per2-LUC-KI mice. […] The medium was then replaced with a recording medium containing 0.1 mM D-luciferin (Promega) along with vehicle (0.1% DMSO), KS15 (20 μM), 5d (20 μM), or 2d (20 μM). Light emission for 2 min at intervals of 20 min was integrated using a dish-type wheeled luminometer (Kronos-Dio, ATTO Cooperation, Tokyo, Japan). Background-subtracted bioluminescence profiles were analyzed using Cosinor analysis software (available at http://www.circadian.org, last accessed on 19 May 2021).
as §2

EC50 (E-box-LUC reporter) [µM] | half-life at 1 μM [1] [min] | Amplitude of cyclic Per2 expression [2] | Robustness of the rhythm (Cosinor regression) [2] | SMILES | Emax (E-box-LUC reporter) [%] | Effect on CRY1-suppressed CLOCK:BMAL1-activated E-box-mediated transcription (hCRY1)
6.44 | 2.4 | significantly augmented the amplitude | barely affect the robustness | COC(=O)COc1cccc(C(C)=NOCc2ccc([N+](=O)[O-])cc2)c1 [Compound 5d, Methyl 2-(3-(1-(((4-nitrobenzyl)oxy)imino)ethyl)phenoxy)acetate] | 193 | dose-dependently restored E-box-mediated transcriptional activities
10.2 | > 60 | significantly augmented the amplitude | barely affect the robustness | CC(=NOCc1ccc([N+](=O)[O-])cc1)c1cccc(OCC(=O)O)c1 [Compound 2d, 2-(3-(1-(((4-nitrobenzyl)oxy)imino)ethyl)phenoxy)acetic acid] | 161 | dose-dependently restored E-box-mediated transcriptional activities
